# Experiments:
# [1] = test system: TCF/LEF transcriptional activity; assay: TCF/LEF luciferase reporter in Wnt3a-treated HEK293 cells; type: cell-based, human; details: Wnt3a-treated HEK293, 24 h
# Method: HEK293 cells were transiently transfected with pGL4.49[luc2P/TCF-LEF-RE/Hygro] reporter vector (Promega) using Fugene HD Transfection Reagent (Promega; Fig. 2f). After overnight incubation, the cells were then treated with 10 mM LiCl (Sigma-Aldrich). Luciferase activity was measured using the ONE-Glo Luciferase Assay System (Promega). The assay was performed in triplicate and repeated at least two times.
# In some experiments cells were treated with mouse Wnt3a (PeproTech) (Fig. 1c) or human Wnt3a (R&D Systems; Fig. 2f) before the measurements, as indicated in the figure legends.
# [2] = test system: Apc^min/+ mice; assay: Intestinal tumorigenesis in Apc min/+ mice; type: in vivo, mouse; details: NCB-0846 HCl oral BID 22.5, 45, 90 mg kg−1, 35 days
# Method: The mouse gut was filled with 10% buffered formalin (Sigma-Aldrich) via the anus immediately after sacrifice and opened longitudinally. The number and maximum diameter/area of tumours were measured by stereoscopic microscopy as described previously. Differences at P values of<0.05 were considered to be statistically significant.
# [3] = target: TSSK1 (Homo sapiens, UniProt Q9BXA7); assay: Kinase selectivity profiling, Testis-specific serine kinase 1; type: biochemical; details: read-out: Percentage inhibition of TSSK1
# Method: (§1) The selectivity of compounds against a panel of 50 human protein kinases was assessed using a non-radiometric assay.
# [4] = test system: TCF/LEF transcriptional activity of spheroid clone #6 Cl. 2; assay: Spheroid TCF/LEF GFP reporter assay; type: cell-based; details: Homo sapiens, read-out: IC50, reduction of cells expressing Wnt-driven GFP
# Source text: Lentiviral gene transfer of the reporter gene was used to evaluate the TCF/LEF transcriptional activity of patient-derived spheroids due to their poor transfection efficiency. Spheroids were infected with TCF/LEF reporter lentiviral particles encoding the green fluorescent protein (GFP) gene under the control of the TCF/LEF-responsive promoter (Cignal Lenti TCF/LEF Reporter (GFP) (Qiagen)) or relevant negative control lentiviral particles (Cignal Lenti negative control (GFP) (Qiagen)) at a multiplicity of infection of 10 in the presence of 4 μg ml^−1 SureEntry Transduction Reagent (Qiagen) for 24 h. GFP-positive spheroids were cloned by limiting dilution in the presence of 2 μg ml^−1 puromycin (Sigma-Aldrich; Fig. 6a,b).
# GFP-positive cells were detected using the Guava easy Cyte HT flow cytometer (Fig. 6c). Experiments were performed in triplicate and repeated at least two times.
# [5] = target: TIE2 (Homo sapiens, UniProt Q02763); assay: Kinase selectivity profiling, TEK tyrosine kinase; type: biochemical; details: read-out: Percentage inhibition of TIE2
# Method: as §1
# [6] = test system: HCT116 cells; assay: Limiting dilution analysis of sphere formation, HCT116; type: cell-based, human
# Method: One million HCT116 and DLD-1 cells were seeded onto 60-mm plates and treated with vehicle (DMSO) or compounds (0.1, 0.3 or 1.0 μM) for either 3 or 4 days. After washing off the compounds, the cells were dissociated to single cells in serum-free DMEM/F12 medium (Thermo Fisher Scientific) containing B27 (Thermo Fisher Scientific), 20 ng ml^−1 epidermal growth factor (EGF; Thermo Fisher Scientific), 10 ng ml^−1 basic fibroblast factor (bFGF; Thermo Fisher Scientific), 5 μg ml^−1 insulin (Thermo Fisher Scientific), 0.4% bovine serum albumin (Sigma-Aldrich) and 2 mM L-glutamine (Thermo Fisher Scientific). One hundred, 10 or 1 viable (determined by trypan-blue dye exclusion) cells were seeded into each well of a 96-well U-bottom PrimeSurface plate (Sumitomo Bakelite). Ten days later, the number of wells showing sphere formation was counted. The frequency of sphere-forming cells was calculated using ELDA software (http://bioinf.wehi.edu.au/software/elda/index.html) provided by the Walter and Eliza Hall Institute (Fig. 5c; Supplementary Table 2). Experiments were performed in triplicate and repeated at least two times.
# [7] = test system: TNIK, AXIN2, c-MYC, LRP6, LRP5 proteins; assay: Immunoblotting of TNIK, AXIN2, c-MYC, LRP6, LRP5 in HCT116 and DLD-1 cells; type: cell-based, human; details: HCT116 and DLD-1, 48 h
# Method: Protein samples were fractionated by SDS–PAGE and blotted onto Immobilon-P membranes (Millipore) as described previously. After incubation with the primary antibodies (listed in Supplementary Table 4) at 4 °C overnight, the blots were detected with the relevant horseradish peroxidase-conjugated anti-mouse or anti-rabbit IgG antibody (Cell Signaling Technology) and Western lighting ECL Pro (PerkinElmer). Signals were visualized with the LAS-4010 system (GE Healthcare). Uncropped versions of the blots in Figs 2e and 3f are shown in Supplementary Fig. 15.
# [8] = target: CHK1 (Homo sapiens, UniProt O14757); assay: Kinase selectivity profiling, Checkpoint kinase 1; type: biochemical; details: read-out: Percentage inhibition of CHK1
# Method: as §1
# [9] = test system: Wnt-target genes (AXIN2, MYC and CCND1); assay: Pharmacodynamics: Wnt-target gene expression in HCT116 xenografts, RT-PCR; type: in vivo, mouse; details: single oral dose 90 or 150 mg kg−1 NCB-0846 HCl
# Method: Total RNA was prepared with an RNeasy Mini Kit (Qiagen). cDNA was synthesized using SuperScript II reverse transcriptase (Thermo Fisher Scientific) or a High-Capacity cDNA reverse transcription kit (Thermo Fisher Scientific) and subjected to TaqMan gene expression assay using pre-designed primer and probe sets (listed in Supplementary Table 3). Amplification data measured as an increase in reporter fluorescence were collected using the StepOne Real-Time PCR System (Thermo Fisher Scientific). The relative mRNA expression level normalized to the internal control (human/mouse β-actin (ACTB/Actb1) gene) was calculated by the comparative threshold cycle (CT) method. Experiments were performed in triplicate and repeated at least two times.
# [10] = target: ABL (Homo sapiens, UniProt P00519); assay: Kinase selectivity profiling, c-Abl oncogene 1; type: biochemical; details: read-out: Percentage inhibition of ABL
# Method: as §1
# [11] = HCT116, 3-day treatment, 0.1μM, 1 cell per well
# [12] = HCT116, 3-day treatment, 0.1μM, 10 cells per well
# [13] = HCT116, 3-day treatment, 0.1μM, 100 cells per well
# [14] = HCT116, 3-day treatment, 0.3μM, 1 cell per well
# [15] = HCT116, 3-day treatment, 0.3μM, 10 cells per well
# [16] = HCT116, 3-day treatment, 0.3μM, 100 cells per well
# [17] = HCT116, 3-day treatment, 1.0μM, 1 cell per well
# [18] = HCT116, 3-day treatment, 1.0μM, 10 cells per well
# [19] = HCT116, 3-day treatment, 1.0μM, 100 cells per well
# [20] = HCT116, 4-day treatment, 0.1μM, 1 cell per well
# [21] = HCT116, 4-day treatment, 0.1μM, 10 cells per well
# [22] = HCT116, 4-day treatment, 0.1μM, 100 cells per well
# [23] = HCT116, 4-day treatment, 0.3μM, 1 cell per well
# [24] = HCT116, 4-day treatment, 0.3μM, 10 cells per well
# [25] = HCT116, 4-day treatment, 0.3μM, 100 cells per well
# [26] = HCT116, 4-day treatment, 1.0μM, 1 cell per well
# [27] = HCT116, 4-day treatment, 1.0μM, 10 cells per well
# [28] = HCT116, 4-day treatment, 1.0μM, 100 cells per well
# Chain of TSSK1 (Q9BXA7 whole entry): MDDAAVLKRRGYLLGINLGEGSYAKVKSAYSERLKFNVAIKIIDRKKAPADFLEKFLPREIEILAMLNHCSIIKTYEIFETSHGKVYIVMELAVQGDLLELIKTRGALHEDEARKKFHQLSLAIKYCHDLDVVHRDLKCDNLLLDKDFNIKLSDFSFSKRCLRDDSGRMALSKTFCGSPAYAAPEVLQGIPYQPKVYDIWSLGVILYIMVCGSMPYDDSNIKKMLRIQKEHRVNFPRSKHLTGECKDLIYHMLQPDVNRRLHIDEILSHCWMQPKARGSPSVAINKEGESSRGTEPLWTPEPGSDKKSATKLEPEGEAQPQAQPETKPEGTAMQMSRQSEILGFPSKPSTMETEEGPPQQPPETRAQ
# Chain of CHK1 (O14757 whole entry): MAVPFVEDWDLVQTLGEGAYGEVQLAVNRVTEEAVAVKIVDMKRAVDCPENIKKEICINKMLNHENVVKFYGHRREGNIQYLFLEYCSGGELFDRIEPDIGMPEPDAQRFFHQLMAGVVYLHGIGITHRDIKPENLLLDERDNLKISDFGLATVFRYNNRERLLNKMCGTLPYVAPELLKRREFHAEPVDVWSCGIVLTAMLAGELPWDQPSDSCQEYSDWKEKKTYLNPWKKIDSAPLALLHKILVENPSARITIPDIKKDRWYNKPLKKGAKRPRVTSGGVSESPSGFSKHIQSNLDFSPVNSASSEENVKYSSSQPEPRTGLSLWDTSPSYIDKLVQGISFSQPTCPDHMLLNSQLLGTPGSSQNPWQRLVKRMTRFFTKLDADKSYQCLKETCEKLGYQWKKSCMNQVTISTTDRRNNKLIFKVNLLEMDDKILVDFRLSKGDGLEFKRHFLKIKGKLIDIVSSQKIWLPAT
# Chain of ABL (P00519 whole entry): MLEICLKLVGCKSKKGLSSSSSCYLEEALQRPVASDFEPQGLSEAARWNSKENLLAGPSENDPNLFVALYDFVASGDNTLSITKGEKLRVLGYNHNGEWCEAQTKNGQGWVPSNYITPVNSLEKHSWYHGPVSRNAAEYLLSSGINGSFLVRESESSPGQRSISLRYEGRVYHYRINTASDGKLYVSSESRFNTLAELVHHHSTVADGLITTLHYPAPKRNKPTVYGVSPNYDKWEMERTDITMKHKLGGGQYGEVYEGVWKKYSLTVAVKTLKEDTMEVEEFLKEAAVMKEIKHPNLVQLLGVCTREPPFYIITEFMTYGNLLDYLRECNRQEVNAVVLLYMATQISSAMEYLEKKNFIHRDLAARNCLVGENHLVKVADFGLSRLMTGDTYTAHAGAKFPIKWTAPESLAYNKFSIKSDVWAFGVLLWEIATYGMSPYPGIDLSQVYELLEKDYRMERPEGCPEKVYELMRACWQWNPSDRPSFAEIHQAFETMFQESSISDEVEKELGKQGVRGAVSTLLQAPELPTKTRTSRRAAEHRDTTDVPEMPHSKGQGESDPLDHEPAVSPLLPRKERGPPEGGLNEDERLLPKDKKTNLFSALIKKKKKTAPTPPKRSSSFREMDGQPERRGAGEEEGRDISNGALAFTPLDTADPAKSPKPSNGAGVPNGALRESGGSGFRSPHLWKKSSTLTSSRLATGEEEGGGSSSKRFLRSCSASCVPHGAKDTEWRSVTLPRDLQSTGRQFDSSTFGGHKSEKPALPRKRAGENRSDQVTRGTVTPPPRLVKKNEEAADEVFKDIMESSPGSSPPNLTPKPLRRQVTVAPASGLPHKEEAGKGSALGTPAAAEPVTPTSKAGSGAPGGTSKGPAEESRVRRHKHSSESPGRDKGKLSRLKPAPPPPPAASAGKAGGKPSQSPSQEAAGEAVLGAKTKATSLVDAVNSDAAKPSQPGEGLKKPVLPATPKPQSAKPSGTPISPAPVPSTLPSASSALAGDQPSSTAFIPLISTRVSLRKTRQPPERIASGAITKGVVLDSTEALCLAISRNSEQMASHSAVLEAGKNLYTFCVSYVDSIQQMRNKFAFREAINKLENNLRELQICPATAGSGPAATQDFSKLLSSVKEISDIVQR
# Chain of TIE2 (Q02763 23-1124): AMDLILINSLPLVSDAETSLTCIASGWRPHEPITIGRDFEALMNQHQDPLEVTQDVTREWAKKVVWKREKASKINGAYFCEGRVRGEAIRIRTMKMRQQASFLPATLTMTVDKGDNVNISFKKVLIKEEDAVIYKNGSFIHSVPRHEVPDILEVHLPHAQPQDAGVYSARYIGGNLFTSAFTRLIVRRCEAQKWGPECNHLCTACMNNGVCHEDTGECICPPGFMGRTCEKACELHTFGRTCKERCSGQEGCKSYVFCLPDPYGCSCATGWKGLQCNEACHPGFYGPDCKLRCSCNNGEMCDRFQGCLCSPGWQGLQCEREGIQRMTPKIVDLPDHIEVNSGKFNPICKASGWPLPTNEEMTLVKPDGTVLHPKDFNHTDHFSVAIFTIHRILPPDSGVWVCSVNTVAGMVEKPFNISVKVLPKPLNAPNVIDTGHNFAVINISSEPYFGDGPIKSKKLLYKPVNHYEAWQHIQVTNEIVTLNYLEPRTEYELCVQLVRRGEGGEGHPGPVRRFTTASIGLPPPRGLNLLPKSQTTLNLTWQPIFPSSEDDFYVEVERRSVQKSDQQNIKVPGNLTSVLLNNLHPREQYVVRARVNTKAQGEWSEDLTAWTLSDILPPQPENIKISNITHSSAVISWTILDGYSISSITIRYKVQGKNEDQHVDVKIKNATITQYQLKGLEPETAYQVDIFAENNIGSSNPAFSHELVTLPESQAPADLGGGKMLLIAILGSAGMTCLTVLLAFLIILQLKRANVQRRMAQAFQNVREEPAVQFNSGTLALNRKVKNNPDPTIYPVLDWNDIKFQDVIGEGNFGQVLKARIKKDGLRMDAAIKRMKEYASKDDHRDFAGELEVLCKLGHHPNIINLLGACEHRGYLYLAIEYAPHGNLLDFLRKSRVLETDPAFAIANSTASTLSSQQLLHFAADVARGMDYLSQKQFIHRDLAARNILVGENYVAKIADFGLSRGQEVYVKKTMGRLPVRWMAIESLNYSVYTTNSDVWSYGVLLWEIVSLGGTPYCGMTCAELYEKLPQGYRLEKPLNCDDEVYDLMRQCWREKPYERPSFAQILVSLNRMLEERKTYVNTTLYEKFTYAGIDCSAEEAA
Structure (SMILES),inhibition at 0.1 µM [3],inhibition at 0.1 µM [5],"Sphere-containing wells/total wells [6, 11]","Sphere-containing wells/total wells [6, 12]","Sphere-containing wells/total wells [6, 13]","Sphere-containing wells/total wells [6, 14]","Sphere-containing wells/total wells [6, 15]","Sphere-containing wells/total wells [6, 16]","Sphere-containing wells/total wells [6, 17]","Sphere-containing wells/total wells [6, 18]","Sphere-containing wells/total wells [6, 19]","Sphere-containing wells/total wells [6, 20]","Sphere-containing wells/total wells [6, 21]","Sphere-containing wells/total wells [6, 22]","Sphere-containing wells/total wells [6, 23]","Sphere-containing wells/total wells [6, 24]","Sphere-containing wells/total wells [6, 25]","Sphere-containing wells/total wells [6, 26]","Sphere-containing wells/total wells [6, 27]","Sphere-containing wells/total wells [6, 28]",also measured
"O[C@H]1CC[C@@H](Oc2cccc3cnc(Nc4ccc5nc[nH]c5c4)nc23)CC1 [NCB-0846, cis-4-(2-(3H-benzo[d]imidazol-5-ylamino)quinazolin-8-yloxy)cyclohexanol]",5.8%,4.9%,60/96,96/96,96/96,47/96,96/96,96/96,3/96,21/96,95/96,69/96,96/96,96/96,41/96,96/96,96/96,0/96,19/96,93/96,"TCF/LEF transcriptional activity [1]: inhibited; effect on colon tumorigenesis [2]: not statistically significant; multiplicity and dimensions of tumours in the small intestine [2]: dose dependently reduced; IC50 [4]: 480 nM; sphere formation activity ([6]; HCT116, short-term (3–4 days) treatment): significantly abrogated; LRP6 and LRP5 protein expression [7]: downregulated; expression of TNIK, AXIN2 and cMYC at the protein level [7]: reduced; inhibition at 0.1 µM [8]: 10.1%; expression of Wnt-target genes (AXIN2, MYC and CCND1) in xenografts [9]: reduced; inhibition at 0.1 µM [10]: 16.9%"
O[C@H]1CC[C@H](Oc2cccc3cnc(Nc4ccc5nc[nH]c5c4)nc23)CC1 [NCB-0970],1.1%,-2.8%,62/96,96/96,96/96,65/96,96/96,96/96,60/96,96/96,96/96,59/96,96/96,96/96,60/96,96/96,96/96,56/96,96/96,96/96,inhibition at 0.1 µM [8]: 9%; inhibition at 0.1 µM [10]: 3.9%

# Source: PMC5007443, “TNIK inhibition abrogates colorectal cancer stemness” (Nature Communications, 2016)
